pIC50: −log10 of the molar value. Read-outs that look alike come from different tables or passages of the source.
Key:
[1] = biological target: T1, bovine heart mitochondrial complex I (NADH-ubiquinone oxidoreductase) (Bos taurus, UniProt P03887+P17694); details: ref [27]; cited from earlier work
[2] = biological target: bovine heart mitochondrial complex I (ubiquinol-NAD+ oxidoreductase activity) (Bos taurus, UniProt P03887+P17694); details: ref [27]; cited from earlier work
ND1 subunit [3] = biological target: T2, ND1 subunit (Bos taurus, UniProt P03887+P17694); details: ref [19]; cited from earlier work
T2 sequence (P03887 whole entry): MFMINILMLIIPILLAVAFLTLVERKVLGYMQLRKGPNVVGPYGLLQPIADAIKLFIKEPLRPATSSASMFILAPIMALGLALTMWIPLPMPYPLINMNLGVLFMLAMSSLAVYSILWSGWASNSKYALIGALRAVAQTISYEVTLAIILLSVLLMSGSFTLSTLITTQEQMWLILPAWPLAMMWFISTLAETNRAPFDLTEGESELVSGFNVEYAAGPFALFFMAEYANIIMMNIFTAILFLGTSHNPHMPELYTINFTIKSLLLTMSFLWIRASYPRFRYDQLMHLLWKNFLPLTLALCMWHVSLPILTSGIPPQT
T2 sequence (P17694 34-463): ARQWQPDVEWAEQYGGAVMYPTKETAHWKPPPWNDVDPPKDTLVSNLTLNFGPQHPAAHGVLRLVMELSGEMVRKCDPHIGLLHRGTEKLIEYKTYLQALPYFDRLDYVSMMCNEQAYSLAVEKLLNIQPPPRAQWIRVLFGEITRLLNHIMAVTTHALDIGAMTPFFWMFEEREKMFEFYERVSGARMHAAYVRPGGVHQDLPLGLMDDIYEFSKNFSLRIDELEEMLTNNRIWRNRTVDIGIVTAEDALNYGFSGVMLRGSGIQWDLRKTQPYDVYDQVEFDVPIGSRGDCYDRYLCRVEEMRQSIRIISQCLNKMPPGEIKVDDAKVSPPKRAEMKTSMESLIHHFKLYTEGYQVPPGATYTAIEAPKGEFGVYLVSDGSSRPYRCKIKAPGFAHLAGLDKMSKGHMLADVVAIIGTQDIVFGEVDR
T2 sequence (P42026 38-216 partner): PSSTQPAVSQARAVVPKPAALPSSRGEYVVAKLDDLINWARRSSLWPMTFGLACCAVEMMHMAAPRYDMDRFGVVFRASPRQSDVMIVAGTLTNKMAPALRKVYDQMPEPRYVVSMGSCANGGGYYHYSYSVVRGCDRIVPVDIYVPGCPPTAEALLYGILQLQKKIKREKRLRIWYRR

[4] = biological target: T1, bovine heart mitochondrial complex I (NADH-ubiquinone oxidoreductase); test: NADH oxidase activity in SMP; assay type: biochemical
ND1 subunit [5] = biological target: T2, ND1 subunit; test: Suppression of specific photoaffinity labeling of the ND1 subunit by [125I]TDA; assay type: binding, bovine; details: [125I]TDA 3 nM; SMP 0.3 mg of protein/mL
[6] = tested on: 49 kDa subunit and an unidentified subunit of complex I; test: Suppression of specific binding of [125I]AFP to SMP; parameters: species or system bovine; details: [125I]AFP 6 nM; competitor 60, 600 or 6,000 nM; SMP 1.0 mg of protein/mL

Sequence of bovine heart mitochondrial complex I (ubiquinol-NAD+ oxidoreductase activity) (P17694 34-463): as the sequence (P17694 34-463) above
Sequence of bovine heart mitochondrial complex I (ubiquinol-NAD+ oxidoreductase activity) (P03887 whole entry): as the sequence (P03887 whole entry) above
Sequence of bovine heart mitochondrial complex I (ubiquinol-NAD+ oxidoreductase activity) (P42026 38-216 partner): as the sequence (P42026 38-216 partner) above
T1 sequence (P17694 34-463): as the sequence (P17694 34-463) above
T1 sequence (P03887 whole entry): as the sequence (P03887 whole entry) above
T1 sequence (P42026 38-216 partner): as the sequence (P42026 38-216 partner) above

SMILES | IC50 values, Forward electron transfer [1] | IC50 (R)/IC50 (F), ratio of IC50 (reverse)/IC50 (forward) [2] | IC50 values, Reverse electron transfer [2] | Suppression of specific binding of [125I]TDA to ND1 (in words) (ND1 subunit [3]) | pIC50 [4] | Suppression of specific binding of [125I]TDA to ND1 (in words) (ND1 subunit [5]) | Suppression of specific labeling of the two subunits by [125I]AFP (in words) [6]
C/C=C(\C)[C@H](O)[C@H](C)/C=C(C)/C=C/C/C(C)=C/Cc1nc(OC)c(OC)c(O)c1C [piericidin A] | 81 ± 7.1 pmol inhibitor/mg of protein | 0.59 | 48 ± 4.3 pmol inhibitor/mg of protein | completely suppress |  |  | 
CCCCCCCCCCC(O)C1CCC(C2CCC(C(O)CCCCCCCCCCC(O)CC3=CC(C)OC3=O)O2)O1 (stereo not drawn) [Bullatacin, bullatacin] | 46 ± 5.2 pmol inhibitor/mg of protein | 0.61 | 28 ± 4.4 pmol inhibitor/mg of protein |  | 9.07 | suppressed the specific binding more efficiently than the piperazines | suppressed the radiolabeling
C=C(C)[C@H]1Cc2c(ccc3c2O[C@@H]2COc4cc(OC)c(OC)cc4[C@@H]2C3=O)O1 [rotenone] |  |  |  |  |  |  | suppressed the radiolabeling
CC(C)(C)c1ccc(CSc2cnn(C(C)(C)C)c(=O)c2Cl)cc1 [pyridaben] |  |  |  | completely suppress |  |  | suppressed the radiolabeling
Cc1nn(C)c(Oc2ccccc2)c1C=NOCc1ccc(C(=O)OC(C)(C)C)cc1 [fenpyroximate] |  |  |  | completely suppress |  |  | suppressed the radiolabeling

Source: paper PMC2597681 (Biochemistry, 2008)
